According to PubChem BioAssay (NCI):
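How tested: cells in 96-well plates exposed to compound for 48 hours at five concentrations. Abbreviation: GI50, concentration required for 50% inhibition of growth. TGI denotes the concentration required for complete inhibition of growth.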

Experiments:
Assay in all cases: DTP human tumour cell line panel, 48 h
CCRF-CEM leukemia = tested on: CCRF-CEM leukemia
SK-MEL-2 melanoma = tested on: SK-MEL-2 melanoma
SK-MEL-5 melanoma = tested on: SK-MEL-5 melanoma
MALME-3M melanoma = tested on: MALME-3M melanoma
IGROV1 ovarian = tested on: IGROV1 ovarian
786-0 renal = tested on: 786-0 renal
HCT-116 colon = tested on: HCT-116 colon
MOLT-4 leukemia = tested on: MOLT-4 leukemia
OVCAR-5 ovarian = tested on: OVCAR-5 ovarian
PC-3 prostate = tested on: PC-3 prostate

COC(=O)c1c(O)ccc(O)c1C(C(C)=O)C(C)=O
TGI (CCRF-CEM leukemia): > 100 µM
TGI (SK-MEL-2 melanoma): > 100 µM
TGI (SK-MEL-5 melanoma): > 100 µM
TGI (MALME-3M melanoma): > 100 µM
TGI (IGROV1 ovarian): > 100 µM
TGI (786-0 renal): > 100 µM
TGI (HCT-116 colon): > 100 µM
TGI (MOLT-4 leukemia): > 100 µM

Cc1ccccc1NC(=O)Cc1nc2ccccc2s1
TGI (CCRF-CEM leukemia): 33 µM
TGI (SK-MEL-2 melanoma): 29.9 µM
TGI (SK-MEL-5 melanoma): > 100 µM
TGI (MALME-3M melanoma): 30 µM
TGI (OVCAR-5 ovarian): 36.3 µM
TGI (786-0 renal): 31.6 µM
TGI (HCT-116 colon): 31 µM
TGI (MOLT-4 leukemia): 41.5 µM

CC[C@H](C)[C@@H]([C@@H](CC(=O)N1CCC[C@H]1[C@H](OC)[C@@H](C)C(=O)NCCc1ccccc1)OC)N(C)C(=O)C(NC(=O)[C@H](C(C)C)N(C)C)C(C)C (stereo not given in full)
TGI (MALME-3M melanoma): > 10 µM
GI50 (OVCAR-5 ovarian): 0.000592 µM
TGI (OVCAR-5 ovarian): > 10 µM
TGI (786-0 renal): 1.34 µM
TGI (HCT-116 colon): 0.0038 µM

CCN(CC)CCNC(=O)c1cccc2c1-c1ccccc1C2=O
GI50 (PC-3 prostate): > 100 µM
TGI (PC-3 prostate): > 100 µM
GI50 (CCRF-CEM leukemia): > 100 µM
TGI (CCRF-CEM leukemia): > 100 µM
GI50 (SK-MEL-2 melanoma): > 100 µM
TGI (SK-MEL-2 melanoma): > 100 µM
GI50 (SK-MEL-5 melanoma): > 100 µM
TGI (SK-MEL-5 melanoma): > 100 µM
GI50 (MALME-3M melanoma): > 100 µM
TGI (MALME-3M melanoma): > 100 µM
GI50 (OVCAR-5 ovarian): > 100 µM
TGI (OVCAR-5 ovarian): > 100 µM
GI50 (IGROV1 ovarian): > 100 µM
TGI (IGROV1 ovarian): > 100 µM
GI50 (786-0 renal): > 100 µM
TGI (786-0 renal): > 100 µM
GI50 (HCT-116 colon): 55.9 µM
TGI (HCT-116 colon): > 100 µM

Cc1ccc(S(=O)(=O)OCOS(=O)(=O)c2ccc(C)cc2)cc1
TGI (CCRF-CEM leukemia): > 100 µM
TGI (SK-MEL-2 melanoma): > 100 µM
TGI (SK-MEL-5 melanoma): > 100 µM
TGI (MALME-3M melanoma): > 100 µM
TGI (OVCAR-5 ovarian): > 100 µM
TGI (IGROV1 ovarian): > 100 µM
TGI (786-0 renal): > 100 µM
TGI (HCT-116 colon): > 100 µM
TGI (MOLT-4 leukemia): > 100 µM

O=S1(=O)c2ccccc2N(c2ccccc2)c2nnnn21
TGI (PC-3 prostate): > 100 µM
TGI (CCRF-CEM leukemia): 31 µM
TGI (SK-MEL-2 melanoma): > 100 µM
TGI (SK-MEL-5 melanoma): > 100 µM
TGI (OVCAR-5 ovarian): > 100 µM
TGI (IGROV1 ovarian): > 100 µM
TGI (786-0 renal): 32.7 µM
TGI (HCT-116 colon): 86.9 µM
TGI (MOLT-4 leukemia): 55.3 µM

O=C(/C=C/c1ccc(Cl)c(Cl)c1)c1ccccc1Cl
TGI (CCRF-CEM leukemia): 19.1 µM
TGI (SK-MEL-5 melanoma): 26.7 µM
TGI (MALME-3M melanoma): 30.5 µM
TGI (OVCAR-5 ovarian): 30.4 µM
TGI (IGROV1 ovarian): 24.2 µM
TGI (786-0 renal): 10.8 µM
TGI (HCT-116 colon): 9.95 µM
TGI (MOLT-4 leukemia): 98.4 µM

Cc1ccc2c(c1)-c1c3c(nn1C)-c1ccccc1SC3O2 (stereo not given)
TGI (CCRF-CEM leukemia): > 100 µM
TGI (SK-MEL-2 melanoma): > 100 µM
TGI (MALME-3M melanoma): > 100 µM
TGI (OVCAR-5 ovarian): > 100 µM
TGI (IGROV1 ovarian): > 100 µM
TGI (786-0 renal): > 100 µM
TGI (HCT-116 colon): > 100 µM
TGI (MOLT-4 leukemia): > 100 µM

CC(=O)OC1CCC2OOC1O2 (stereo not given)
TGI (CCRF-CEM leukemia): > 100 µM
TGI (SK-MEL-2 melanoma): > 100 µM
TGI (SK-MEL-5 melanoma): > 100 µM
TGI (MALME-3M melanoma): > 100 µM
TGI (OVCAR-5 ovarian): > 100 µM
TGI (IGROV1 ovarian): > 100 µM
TGI (786-0 renal): > 100 µM
TGI (HCT-116 colon): > 100 µM
TGI (MOLT-4 leukemia): > 100 µM

COc1cc(C(=O)/C=C/c2cc(-c3ccc4c(c3)OCO4)n[nH]2)cc(OC)c1OC
GI50 (PC-3 prostate): 1.51 µM
TGI (PC-3 prostate): 4.02 µM
GI50 (CCRF-CEM leukemia): 2 µM
TGI (CCRF-CEM leukemia): 5.74 µM
GI50 (SK-MEL-5 melanoma): 3.32 µM
TGI (SK-MEL-5 melanoma): 13.3 µM
GI50 (MALME-3M melanoma): 1.85 µM
TGI (MALME-3M melanoma): 4.69 µM
GI50 (OVCAR-5 ovarian): 2.63 µM
TGI (OVCAR-5 ovarian): 9.6 µM
GI50 (IGROV1 ovarian): 1.99 µM
TGI (IGROV1 ovarian): 5.72 µM
GI50 (786-0 renal): 1.84 µM
TGI (786-0 renal): 3.46 µM
GI50 (HCT-116 colon): 1.9 µM
TGI (HCT-116 colon): 4.63 µM
GI50 (MOLT-4 leukemia): 2.71 µM
TGI (MOLT-4 leukemia): 8.36 µM
